# Measurements: patent US20190030036A1, “PHOSPHODIESTERASE INHIBITOR TREATMENT” (Cyrano Therapeutics, Inc., priority 2013, published 2019)
# Like-named read-outs stand apart in the source and are kept apart here.
# Assays:
# hyposmic patients = test: Smell acuity in open label trial of inhalable/nasal PDE inhibitor (Examples 3, 4); assay type: in vivo, human; settings: nasal theophylline, not more than 500 μg, 1 month
# Procedure: Hyposmic patients for whom the etiology of smell loss is not associated with head injury or allergic rhinitis are enrolled in an open label trial of inhalable theophylline. Patients are started at an initial dose of not more than 500 μg formulated as a liquid spray or dry powder to be delivered as a metered dose. Initially only local patients are enrolled so that quicker dose titration is achieved. Groups of 5 patients are started on not more than 500 μg of theophylline and continued for 1 month.
# Patients are tested for improvement in smell acuity using the standard forced choice technique using four odors as described in Example 1. Additionally, subjective measurements of smell function are obtained using a scale from 0-100 as described in Example 1. Blood samples are also drawn to ascertain blood theophylline level to gauge its relationship to the expected recovery of smell.
# Hyposmic patients for whom the etiology of smell loss is not associated with head injury or allergic rhinitis are enrolled in an open label trial of an inhalable PDE1 inhibitor. […]
# patients with hyposmia [1] = test: Side effects of oral theophylline (Example 1); assay type: in vivo, human; settings: oral theophylline 200-800 mg daily in divided doses in middle of meals
# Text: Patients were required to take the drug in divided doses in middle of meals (breakfast and lunch).
# [2] = system: patients with hyposmia and hypogeusia
# Procedure: Subjective changes in smell and taste function under each study condition were measured by questionnaire before measurements of smell or taste function. Responses were graded on a scale from 0 to 100, with 0 reflecting no subjective response in overall sensory function; 100, return to normal sensory function; and values between 0 and 100 intermediate responses. Overall sensory function was defined as the ability to smell all odors and identify all tastants, although response intensity varied.
# In this prior trial, oral theophylline was administered daily in 2 divided doses (at breakfast and lunch) of 200, 400, 600, or 800 mg for 2 to 12 months of treatment. Treatment was divided into 2- to 4-month periods, at which time patients returned to The Clinic for measurements of subjective sensory responses, olfactometry, gustometry, serum theophylline level, and body weight.
# Each patient delivered the theophylline dose in each naris once daily throughout the study. Patients underwent evaluation 1, 2, and 4 weeks during drug use with the same measurements used for the oral study.
# Values for the oral trial were taken from the last measurements made before discontinuation of oral drug treatment and before initiation of the intranasal trial. […] Values for the intranasal pilot study were taken from measurements obtained after completion of 4 weeks of intranasal treatment.
# Body weight (Example 8) = assay type: in vivo, human
# patients with hyposmia [3] = test: Subjective taste and smell response, intranasal theophylline pilot study (Example 7); settings: intranasal theophylline 20 μg per naris once a day, four weeks; six of first eight patients
# Text: These patients were previously treated with oral theophylline or were switched from oral theophylline to intranasal theophylline at the start of the study. Selection for inclusion in the intranasal study was based upon several criteria. 1) non-response to oral theophylline; 2) severe side effects with oral theophylline that prevented reaching a dose of sufficient strength to restore smell function; and/or 3) preference for intranasal medication over oral medication.
# Subjective responses to treatment were obtained independent of any interaction with the clinical staff by using a scale of 0-100 to measure response of taste function and smell function to treatment with 0 indicating no response, 100 indicating return to normal function and intermediate numbers indicating an intermediate response.
# The patients inserted a plastic syringe containing 0.4 ml of fluid (20 μg theophylline) into each naris once a day. […] The drug dose was delivered through a plastic nipple which fitted snugly onto the filled syringe which was attached directly to the nipple. One nipple was supplied for each set of two syringes in each application kit. The patient fitted the nipple on one syringe, placed the nipple securely into the lower naris and injected the contents of the syringe directly into the lower vault of one naris accompanied by a modest inhalation. […]
# cAMP = test: Parotid saliva cAMP after oral theophylline (Example 2); assay type: in vivo, human; settings: for cAMP: parotid saliva
# Procedure: Parotid saliva was collected from each patient by application of a Lashley cup over Stensen's duct with lingual stimulation by placement of concentrated lemon juice. Saliva was collected in plastic tubes and stored at −20° C. until assayed. cAMP and cGMP were measured in saliva by a sensitive 96 plate spectrophotometric assay (R&D Systems, Minneapolis, Minn.).
# All patients were placed in a fixed design open label clinical trial with treatment with oral theophylline. Treatment consisted of fixed treatment periods of two-eight months with sequential doses of the drug at 200 mg, 400 mg and 600 mg. At termination of each of these intervals, patients returned to study site for reevaluation. At the end of each interval subjective responses to treatment were measured with a modification of the 0-100 scale previously used. Subjective responses to treatment were graded on a sliding scale from −100−0-+100 with patients recording improvement (+0-+100), no improvement (0) or worsening (0-−100) of their overall smell function. If overall smell function improved ≥5% they were considered to improve clinically (1). If smell function improved <5% they were considered not to improve (1). At the end of each interval subjective measurements of smell function, measurements of DT, RT, ME and H and measurements of parotid saliva for levels of cAMP and cGMP were obtained. In addition, blood plasma was obtained by venipuncture, placed in ice into zinc free tubes which contained 100 mg zinc free heparin, centrifuged at 3000 rpm for 10-20 min, the plasma transferred to plastic PCR tubes and stored at −20° C. until assayed. Theophylline was assayed by a fluorescence polarization assay (Abbott, Chicago, Ill.), as previously described.
# Data for the cyclic nucleotides from these 31 patients was not analyzed until the entire study of the 312 patients in Example 1 was assembled and analyzed in its entirety. After completion of these analyses, all data for parotid saliva cAMP and cGMP from all patients in whom salivary cAMP and cGMP were obtained were assembled. Levels of salivary cyclic nucleotides varied widely. Initially, without external criteria, there was no way to understand these disparate data. […] In a similar manner, measurements of each patient's plasma theophylline level at each dosage of theophylline (at 200 mg, 400 mg, 600 mg of theophylline) were categorized. The two patient groups were also analyzed post hoc with respect to type of smell loss and etiology of smell loss.
compound,measurement,setting,value
Cn1c(=O)c2[nH]cnc2n(C)c1=O [theophylline],recovery of smell acuity compared with oral administration,hyposmic patients,at least an equivalent recovery of smell acuity
same,Side effects,patients with hyposmia [1],generally minimal
same,earliest time improvement was measured,[2]; intranasal theophylline,1 week
same,improvement in taste and smell functions compared with oral treatment,"[2]; intranasal theophylline 20 μg/d in each naris, 4 weeks",2 fold
same,patients reporting overall improvement in taste and smell functions,"[2]; intranasal theophylline 20 μg/d in each naris, 4 weeks, 10 patients",8 patients
same,earliest time improvement was measured,[2]; oral theophylline,2 months
same,patients reporting overall increased taste and smell function,"[2]; oral theophylline 200 to 800 mg/d, 2 to 12 months, 10 patients",6 patients
same,mean (SEM) weight increase from pretreatment values,Body weight (Example 8); intranasal theophylline 20 μg/d in each naris,2.5 (0.5) kg
same,mean (SEM) weight increase from pretreatment values,Body weight (Example 8); oral theophylline 200 to 800 mg/d,1.5 (0.4) kg
same,patients with subjective improvement in smell function,patients with hyposmia [3],75%
same,increase of saliva cAMP levels above baseline,"cAMP; oral theophylline 200 mg, improved patients, not significant",10%
same,increase of saliva cAMP levels over baseline,"cAMP; oral theophylline 400 mg, improved group, not statistically significant",40%
same,increase of saliva cAMP levels above initial values,"cAMP; oral theophylline 600 mg, improved patients, significant",67%
same,cAMP,"cAMP; oral theophylline 200 mg, patients with improved smell function (16)",0.96 ± 0.13 pmol/mL
same,cAMP,"cAMP; oral theophylline 200 mg, patients with unimproved smell function (9)",0.78 ± 0.26 pmol/mL
same,cAMP,"cAMP; oral theophylline 400 mg, patients with improved smell function (12)",1.22 ± 0.33 pmol/mL
same,cAMP,"cAMP; oral theophylline 400 mg, patients with unimproved smell function (5)",0.95 ± 0.26 pmol/mL
same,cAMP,"cAMP; oral theophylline 600 mg, patients with unimproved smell function (9)",0.56 ± 0.21 pmol/mL
